Experimental findings from ChEMBL document CHEMBL1144036, “Bornyl (3,4,5-trihydroxy)-cinnamate--an optimized human neutrophil elastase inhibitor designed by free energy calculations” (Bioorg Med Chem, 2008) are described below.

SMILES strings stand for the structures.

The assay deals with T1, Neutrophil elastase (Homo sapiens, UniProt P08246).
T1 sequence (P08246 whole entry): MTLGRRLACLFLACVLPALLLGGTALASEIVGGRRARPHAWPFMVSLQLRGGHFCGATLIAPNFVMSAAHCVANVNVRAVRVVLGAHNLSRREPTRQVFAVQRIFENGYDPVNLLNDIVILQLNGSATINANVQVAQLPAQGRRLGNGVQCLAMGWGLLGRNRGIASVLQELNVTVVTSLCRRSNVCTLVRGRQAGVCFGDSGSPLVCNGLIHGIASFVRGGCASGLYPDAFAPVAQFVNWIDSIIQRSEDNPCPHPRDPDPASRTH
Nature of the assay: Inhibition of human neutrophil elastase.

`CC1(C)C2CC[C@]1(C)C(OC(=O)/C=C/c1cc(O)c(O)c(O)c1)C2` (some centres not stated) came in with a concentration for half-maximal inhibition (IC50) of 540 nM.

`CC1(C)C2CC[C@]1(C)C(OC(=O)/C=C/c1ccc(O)c(O)c1)C2` (some centres not stated) gave an IC50 of 1560 nM.

A word on the IC50: it is the point on the concentration scale where inhibition reaches its midpoint. A low value points to inhibition by little substance.
